“And” between values parts separate entries of the source, which are not always exact repeats. Equal entries are not always repeated. The source made the active and inactive calls.
Key:
[1] = target: T1, Type-1 angiotensin II receptor (Homo sapiens, UniProt P30556); test: AT1 receptor antagonists, dose response, selectivity assay for APJ receptor antagonist project, cell-based, uHTS hits (AID 463214); format: functional;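 further: antagonist potency against angiotensin II stimulated AT1 response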
T1 sequence (P30556 whole entry): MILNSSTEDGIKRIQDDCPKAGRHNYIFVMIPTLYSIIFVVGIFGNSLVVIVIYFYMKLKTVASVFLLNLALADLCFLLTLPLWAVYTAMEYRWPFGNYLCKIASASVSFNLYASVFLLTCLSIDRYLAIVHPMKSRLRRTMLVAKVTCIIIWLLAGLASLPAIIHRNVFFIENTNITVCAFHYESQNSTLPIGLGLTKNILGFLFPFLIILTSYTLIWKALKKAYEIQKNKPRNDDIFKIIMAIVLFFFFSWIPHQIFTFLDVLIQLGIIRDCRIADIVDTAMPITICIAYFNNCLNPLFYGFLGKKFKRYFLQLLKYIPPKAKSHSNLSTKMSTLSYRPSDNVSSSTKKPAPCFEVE

Beta-galactosidase = Beta-galactosidase (Escherichia coli, UniProt Q8VNN2); test: PubChem AID 485352; format: functional
Beta-galactosidase, sequence (Q8VNN2 whole entry): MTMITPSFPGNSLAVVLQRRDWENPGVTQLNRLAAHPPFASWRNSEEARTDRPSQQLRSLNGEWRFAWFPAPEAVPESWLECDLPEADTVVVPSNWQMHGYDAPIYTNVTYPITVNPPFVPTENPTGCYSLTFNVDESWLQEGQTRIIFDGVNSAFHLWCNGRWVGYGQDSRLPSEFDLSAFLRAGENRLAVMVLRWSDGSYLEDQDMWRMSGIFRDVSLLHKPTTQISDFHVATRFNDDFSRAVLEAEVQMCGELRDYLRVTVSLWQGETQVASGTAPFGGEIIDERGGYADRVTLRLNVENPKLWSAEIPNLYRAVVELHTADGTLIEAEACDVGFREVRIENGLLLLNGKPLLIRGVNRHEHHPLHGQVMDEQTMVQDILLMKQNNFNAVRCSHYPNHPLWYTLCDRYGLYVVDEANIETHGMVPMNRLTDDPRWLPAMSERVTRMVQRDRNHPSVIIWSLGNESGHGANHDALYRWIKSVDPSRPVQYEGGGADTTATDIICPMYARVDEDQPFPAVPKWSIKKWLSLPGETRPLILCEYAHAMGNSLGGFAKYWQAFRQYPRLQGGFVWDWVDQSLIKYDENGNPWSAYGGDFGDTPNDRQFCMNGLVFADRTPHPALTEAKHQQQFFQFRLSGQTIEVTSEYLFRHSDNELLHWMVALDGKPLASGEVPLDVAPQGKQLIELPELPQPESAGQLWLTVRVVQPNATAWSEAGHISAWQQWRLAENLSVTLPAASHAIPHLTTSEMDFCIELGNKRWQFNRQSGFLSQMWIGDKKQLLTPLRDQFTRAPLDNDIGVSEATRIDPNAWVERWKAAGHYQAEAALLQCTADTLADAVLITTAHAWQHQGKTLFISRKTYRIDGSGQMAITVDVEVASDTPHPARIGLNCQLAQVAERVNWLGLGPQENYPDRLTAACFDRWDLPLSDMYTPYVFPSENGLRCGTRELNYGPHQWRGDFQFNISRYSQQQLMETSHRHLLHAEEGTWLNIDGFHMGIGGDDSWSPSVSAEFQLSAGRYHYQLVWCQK

[2] = inhibitors of intracellular T. cruzi replication, confirmation, NIH3T3 host cells, beta-gal luminescence (AID 2044); format: functional, cell-based;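 further: intracellular parasites grown in NIH/3T3 mouse fibroblasts as host cells; luminescent beta-galactosidase reporter signal from transgenic T. cruzi replicating inside host cells; inhibitors lower the luminescence signal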
[3] = target: T2, Adenosylmethionine-8-amino-7-oxononanoate aminotransferase (Mycobacterium tuberculosis, UniProt P9WQ81); test: Mycobacterium tuberculosis BioA enzyme inhibitor Measured in Biochemical System Using Plate Reader - 2163-02_Inhibitor_Dose_CherryPick_Activity.; format: functional, Mycobacterium tuberculosis UT205
T2 sequence (P9WQ81 whole entry): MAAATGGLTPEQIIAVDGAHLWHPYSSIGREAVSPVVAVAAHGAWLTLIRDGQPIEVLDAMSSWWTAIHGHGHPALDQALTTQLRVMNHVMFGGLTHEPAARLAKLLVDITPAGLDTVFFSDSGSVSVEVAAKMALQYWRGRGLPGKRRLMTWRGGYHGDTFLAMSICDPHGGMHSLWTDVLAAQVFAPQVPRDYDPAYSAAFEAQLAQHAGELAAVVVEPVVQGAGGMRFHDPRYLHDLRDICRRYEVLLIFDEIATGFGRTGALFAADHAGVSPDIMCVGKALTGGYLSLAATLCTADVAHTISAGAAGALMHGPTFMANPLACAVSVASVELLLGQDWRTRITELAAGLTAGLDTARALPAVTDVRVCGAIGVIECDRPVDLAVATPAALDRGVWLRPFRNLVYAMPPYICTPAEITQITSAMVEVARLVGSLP

[4] = cytotoxicity toward NIH3T3 fibroblasts, dose response, counter-screen, cell-based, ATP luminescence, mouse fibroblasts (AID 2010); format: functional;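 further: cells exposed to compound for about 90 hours before reading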
Cytochrome P450 3A4 [5] = target: T3, Cytochrome P450 3A4 (Homo sapiens, UniProt P08684); conditions: Potency
T3 sequence (P08684 whole entry): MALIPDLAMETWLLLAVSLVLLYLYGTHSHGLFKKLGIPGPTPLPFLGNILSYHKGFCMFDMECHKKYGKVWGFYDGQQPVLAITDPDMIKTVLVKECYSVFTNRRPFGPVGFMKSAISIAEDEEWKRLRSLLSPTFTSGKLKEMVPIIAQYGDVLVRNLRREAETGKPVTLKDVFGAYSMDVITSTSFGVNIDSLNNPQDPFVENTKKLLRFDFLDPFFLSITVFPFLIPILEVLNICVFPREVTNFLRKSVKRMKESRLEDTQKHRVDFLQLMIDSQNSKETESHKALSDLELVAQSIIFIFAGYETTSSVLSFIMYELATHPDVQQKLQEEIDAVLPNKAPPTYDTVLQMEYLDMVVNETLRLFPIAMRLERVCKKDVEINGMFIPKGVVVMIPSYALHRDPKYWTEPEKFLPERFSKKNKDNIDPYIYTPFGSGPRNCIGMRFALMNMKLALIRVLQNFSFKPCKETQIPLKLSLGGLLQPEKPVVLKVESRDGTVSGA

[6] = target: 26S proteasome non-ATPase regulatory subunit 14 (Homo sapiens, UniProt O00487); test: inhibition of proteasome subunit RPN11 – biochemical, fluorescence polarization, uHTS hits, confirmation (AID 602368); format: functional
[7] = target: 72 kDa type IV collagenase (Homo sapiens, UniProt P08253); test: Dose Response validation of uHTS RPN11 inhibitor hits using a MMP-2 Fluorescence assay.; format: functional
Prothrombin = Prothrombin (Bos taurus, UniProt P00735); test: thrombin inhibition, dose response, biochemical, fluorescence polarization, uHTS hits (AID 602369); format: functional
[8] = target: Induced myeloid leukemia cell differentiation protein Mcl-1 (Homo sapiens, UniProt Q07820); format: functional
Cytochrome P450 2C19 = Cytochrome P450 2C19 (Homo sapiens, UniProt P33261); test: Cytochrome panel assay with activity outcomes. Panel member name: p450-cyp2c19 Compounds with AC50 equal or less than 10 uM are considered active; format: functional; conditions: read-out: AC50
Cytochrome P450 2C19, sequence (P33261 whole entry): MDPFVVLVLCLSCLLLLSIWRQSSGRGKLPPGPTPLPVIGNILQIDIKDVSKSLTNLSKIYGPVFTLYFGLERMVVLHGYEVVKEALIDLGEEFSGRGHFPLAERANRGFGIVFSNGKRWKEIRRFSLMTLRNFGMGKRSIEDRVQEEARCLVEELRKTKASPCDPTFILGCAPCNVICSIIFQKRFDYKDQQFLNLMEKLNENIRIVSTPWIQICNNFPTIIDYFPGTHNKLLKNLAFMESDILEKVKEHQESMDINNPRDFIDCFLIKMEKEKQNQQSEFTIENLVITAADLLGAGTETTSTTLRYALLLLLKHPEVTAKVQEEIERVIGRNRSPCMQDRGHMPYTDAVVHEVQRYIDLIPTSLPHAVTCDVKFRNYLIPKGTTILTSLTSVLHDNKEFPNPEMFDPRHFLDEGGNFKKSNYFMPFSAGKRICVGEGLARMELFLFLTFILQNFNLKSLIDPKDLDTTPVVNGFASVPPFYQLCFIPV

Cytochrome P450 2C9 = Cytochrome P450 2C9 (Homo sapiens, UniProt P11712)
Cytochrome P450 2C9, sequence (P11712 whole entry): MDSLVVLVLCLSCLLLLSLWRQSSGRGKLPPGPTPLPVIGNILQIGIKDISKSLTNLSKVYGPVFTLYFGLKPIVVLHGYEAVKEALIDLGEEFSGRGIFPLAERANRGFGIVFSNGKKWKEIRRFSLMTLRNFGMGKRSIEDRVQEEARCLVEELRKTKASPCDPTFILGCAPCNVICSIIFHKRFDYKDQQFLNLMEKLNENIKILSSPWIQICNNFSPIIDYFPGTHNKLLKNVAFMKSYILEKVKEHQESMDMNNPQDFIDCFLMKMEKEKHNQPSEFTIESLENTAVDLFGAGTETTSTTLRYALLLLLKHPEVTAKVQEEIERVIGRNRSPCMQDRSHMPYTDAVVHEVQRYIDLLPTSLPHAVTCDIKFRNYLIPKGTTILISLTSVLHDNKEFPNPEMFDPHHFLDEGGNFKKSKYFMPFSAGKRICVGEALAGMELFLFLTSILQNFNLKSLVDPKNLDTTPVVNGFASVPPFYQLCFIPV

[9] = target: Voltage-gated inwardly rectifying potassium channel KCNH2 (Homo sapiens, UniProt Q12809); conditions: Potency;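 further: confirmatory quantitative high-throughput screen measuring inhibition of hERG channel activity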
Voltage-gated inwardly rectifying potassium channel KCNH2, sequence (Q12809 whole entry): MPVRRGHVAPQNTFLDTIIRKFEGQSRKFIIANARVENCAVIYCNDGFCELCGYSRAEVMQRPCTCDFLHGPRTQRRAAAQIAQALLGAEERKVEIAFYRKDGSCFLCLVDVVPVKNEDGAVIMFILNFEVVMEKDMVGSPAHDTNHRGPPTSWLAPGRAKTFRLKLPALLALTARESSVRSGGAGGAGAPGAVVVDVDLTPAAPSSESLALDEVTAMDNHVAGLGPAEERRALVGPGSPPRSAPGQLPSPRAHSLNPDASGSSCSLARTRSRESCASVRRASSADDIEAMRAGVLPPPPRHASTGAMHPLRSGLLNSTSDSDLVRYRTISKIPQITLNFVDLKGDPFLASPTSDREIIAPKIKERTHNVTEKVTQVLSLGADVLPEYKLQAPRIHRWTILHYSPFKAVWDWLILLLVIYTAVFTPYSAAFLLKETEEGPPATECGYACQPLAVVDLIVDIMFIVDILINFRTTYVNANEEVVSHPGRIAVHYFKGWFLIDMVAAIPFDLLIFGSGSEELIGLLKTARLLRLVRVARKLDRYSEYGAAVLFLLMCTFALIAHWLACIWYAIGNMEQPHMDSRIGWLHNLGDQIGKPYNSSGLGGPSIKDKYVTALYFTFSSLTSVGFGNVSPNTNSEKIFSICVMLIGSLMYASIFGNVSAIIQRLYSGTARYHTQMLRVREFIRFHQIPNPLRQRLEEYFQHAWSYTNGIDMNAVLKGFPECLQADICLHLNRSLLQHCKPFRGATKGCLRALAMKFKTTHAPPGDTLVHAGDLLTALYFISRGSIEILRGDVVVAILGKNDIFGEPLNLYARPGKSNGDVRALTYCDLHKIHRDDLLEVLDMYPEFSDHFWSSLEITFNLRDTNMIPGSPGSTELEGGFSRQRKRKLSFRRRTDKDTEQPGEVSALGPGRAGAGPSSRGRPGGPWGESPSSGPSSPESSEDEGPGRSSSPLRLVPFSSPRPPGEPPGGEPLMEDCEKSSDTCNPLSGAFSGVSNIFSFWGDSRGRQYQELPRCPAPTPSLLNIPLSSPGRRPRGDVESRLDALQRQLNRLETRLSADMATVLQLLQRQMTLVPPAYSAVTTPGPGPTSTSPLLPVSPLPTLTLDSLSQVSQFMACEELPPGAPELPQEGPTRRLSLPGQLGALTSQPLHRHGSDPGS

INS1 = test: beta cell apoptosis inhibitors, cytokine rescue, dose response, luminescence, retest (AID 449756); format: functional, cell-based; conditions: Rattus norvegicus;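 further: cell death triggered by IL-1 beta plus TNF-alpha plus IFN-gamma mixture; protective hits raise ATP signal compared with cytokine alone wells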
[10] = THP-1 cell cytotoxicity, dose response, cytotoxicity control for non-replicating M. tuberculosis project (AID 489025); format: functional
cells [11] = format: functional
[12] = Vero E6 cell cytotoxicity, dose response, cytotoxicity control for non-replicating M. tuberculosis project, secondary assay (AID 492998); format: functional, VeroE6; conditions: Vero C1008
cells [13] = format: functional, cell-based
cells [14] = format: functional, cell-based; remark: listed apart in the source
[15] = cytotoxicity in HEK-293T cells, dose response, cytotoxicity control for TCR NF-kB inhibitor project, luminescence, T-cell screen hits (AID 489026); format: functional, cell-based;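 further: cells exposed to compound about 14 hours before the viability readout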
[16] = target: T4, Microphthalmia-associated transcription factor (Homo sapiens, UniProt O75030); test: TRPM1 promoter luciferase signal decrease, dose response, MITF inhibitor project, cell-based, SK-MEL-5, cherry-picked, set 3 (AID 493073); format: functional
T4 sequence (O75030 whole entry): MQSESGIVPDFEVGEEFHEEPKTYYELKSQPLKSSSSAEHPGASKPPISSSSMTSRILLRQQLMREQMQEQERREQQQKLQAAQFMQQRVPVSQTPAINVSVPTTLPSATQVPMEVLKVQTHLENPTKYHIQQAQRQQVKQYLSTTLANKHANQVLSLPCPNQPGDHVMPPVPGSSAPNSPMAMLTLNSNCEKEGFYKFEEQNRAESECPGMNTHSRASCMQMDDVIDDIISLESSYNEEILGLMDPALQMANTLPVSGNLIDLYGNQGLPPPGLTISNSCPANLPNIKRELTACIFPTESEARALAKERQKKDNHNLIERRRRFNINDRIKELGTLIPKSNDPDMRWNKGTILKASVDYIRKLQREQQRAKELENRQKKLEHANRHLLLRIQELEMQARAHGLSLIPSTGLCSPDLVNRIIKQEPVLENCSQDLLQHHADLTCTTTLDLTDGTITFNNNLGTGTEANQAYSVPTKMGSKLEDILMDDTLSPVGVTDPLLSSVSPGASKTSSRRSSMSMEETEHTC

Large T antigen = Large T antigen (Simian virus 40, UniProt P03070); format: functional, Betapolyomavirus macacae;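 further: Confirmatory-stage PubChem screen for compounds that inhibit SV40 T antigen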
Large T antigen, sequence (P03070 whole entry): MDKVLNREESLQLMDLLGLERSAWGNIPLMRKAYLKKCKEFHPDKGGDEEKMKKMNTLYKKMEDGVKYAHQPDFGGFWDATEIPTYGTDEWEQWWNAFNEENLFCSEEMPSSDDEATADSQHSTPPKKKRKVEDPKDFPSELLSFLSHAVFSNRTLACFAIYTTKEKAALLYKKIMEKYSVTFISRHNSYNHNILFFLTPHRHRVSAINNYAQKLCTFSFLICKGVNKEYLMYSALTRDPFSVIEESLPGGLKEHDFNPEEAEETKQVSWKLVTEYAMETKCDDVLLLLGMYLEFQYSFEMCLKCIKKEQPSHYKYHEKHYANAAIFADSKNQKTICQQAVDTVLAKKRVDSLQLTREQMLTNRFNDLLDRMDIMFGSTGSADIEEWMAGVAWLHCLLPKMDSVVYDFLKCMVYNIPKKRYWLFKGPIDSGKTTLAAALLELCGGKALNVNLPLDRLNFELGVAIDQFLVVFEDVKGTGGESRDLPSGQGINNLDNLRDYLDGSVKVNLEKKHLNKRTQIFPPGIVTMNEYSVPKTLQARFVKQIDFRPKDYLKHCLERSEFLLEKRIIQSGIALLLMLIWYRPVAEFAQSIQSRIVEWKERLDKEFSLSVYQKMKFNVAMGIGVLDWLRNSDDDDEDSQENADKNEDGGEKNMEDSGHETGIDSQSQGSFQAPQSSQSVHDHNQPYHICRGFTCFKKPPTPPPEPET

Escherichia coli = test: microbe, parasite or virus in culture
Cytochrome P450 3A4 [17] = target: T3, Cytochrome P450 3A4
[18] = HEp-2 cell cytotoxicity, dose response, cytotoxicity control for RSV inhibitor project, HTS (AID 2410); format: functional; conditions: human respiratory syncytial virus
[19] = target: Glucose-6-phosphate 1-dehydrogenase (Homo sapiens, UniProt P11413); test: human G6PD enzyme inhibitors, dose response, selectivity assay for P. falciparum G6PD inhibitor project, biochemical, fluorescence (AID 504792); format: functional
Glucose-6-phosphate 1-dehydrogenase, sequence (P11413 whole entry): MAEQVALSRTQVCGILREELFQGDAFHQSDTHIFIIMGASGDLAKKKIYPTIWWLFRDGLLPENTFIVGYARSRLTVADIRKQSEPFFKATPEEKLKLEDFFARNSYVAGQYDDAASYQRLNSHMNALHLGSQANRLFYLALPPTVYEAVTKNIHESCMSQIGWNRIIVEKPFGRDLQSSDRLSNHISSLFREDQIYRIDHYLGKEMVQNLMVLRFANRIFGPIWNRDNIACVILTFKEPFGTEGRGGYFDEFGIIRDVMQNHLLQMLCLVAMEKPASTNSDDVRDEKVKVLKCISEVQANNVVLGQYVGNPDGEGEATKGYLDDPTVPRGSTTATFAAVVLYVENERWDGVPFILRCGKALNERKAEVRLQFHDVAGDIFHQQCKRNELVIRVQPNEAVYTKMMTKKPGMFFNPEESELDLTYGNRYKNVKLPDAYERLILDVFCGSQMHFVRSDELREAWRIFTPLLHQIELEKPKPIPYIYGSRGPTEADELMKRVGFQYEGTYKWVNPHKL

Vero = test: cells; format: functional, cell-based; conditions: Chlorocebus sabaeus
Cytochrome P450 1A2 = target: T5, Cytochrome P450 1A2 (Homo sapiens, UniProt P05177);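 further: PubChem cytochrome P450 panel assay, CYP1A2 panel member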
T5 sequence (P05177 whole entry): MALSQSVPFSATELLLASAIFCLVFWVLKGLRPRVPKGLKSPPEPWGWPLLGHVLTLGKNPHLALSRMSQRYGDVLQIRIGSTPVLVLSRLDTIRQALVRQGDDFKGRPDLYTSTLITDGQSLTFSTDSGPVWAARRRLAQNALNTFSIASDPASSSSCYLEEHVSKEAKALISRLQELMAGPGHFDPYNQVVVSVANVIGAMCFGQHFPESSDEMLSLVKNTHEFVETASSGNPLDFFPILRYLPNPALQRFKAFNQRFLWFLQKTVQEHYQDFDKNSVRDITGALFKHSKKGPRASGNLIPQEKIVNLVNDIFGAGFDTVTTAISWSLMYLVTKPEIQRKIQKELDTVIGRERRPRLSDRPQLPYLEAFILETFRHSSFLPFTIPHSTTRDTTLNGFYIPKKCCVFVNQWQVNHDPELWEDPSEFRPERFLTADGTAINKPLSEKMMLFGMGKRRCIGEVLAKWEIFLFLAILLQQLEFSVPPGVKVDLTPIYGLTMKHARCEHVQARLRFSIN

CC(C(=O)OCC(=O)c1cccc([N+](=O)[O-])c1)N1C(=O)C2C3C=CC(C3)C2C1=O (configuration not stated)
IC50 [1]: > 40 µM (not active) | EC50 (Beta-galactosidase): > 40 µM (inactive)

CCOC(=O)c1c(C)[n+](-c2ccc(C)cc2)c(CC)c2cc(OC)c(OC)cc12
EC50 [2]: 0.292 µM (active) | AC50 [3]: 4.21 µM (active) | EC50 [4]: > 60 µM (not active)

COC(=O)C[C@@H]1C[C@@H]2c3cc(NC(=O)c4cccnc4)ccc3O[C@@H]2[C@@H](CO)O1
AC50 [3]: 13.6 µM (active)

COC(=O)C1=C(C)N(Cc2ccccc2)C2=C3C(=O)N(c4ccccc4)C(=O)C3[C@@](O)(C(=O)OC)C(=O)N2C1c1ccccc1 (some centres not stated)
AC50 (Cytochrome P450 3A4 [5]): 3.98 µM (inconclusive) and 3.16 µM (inconclusive)

CS(=O)(=O)C1=NSC2=NC(=O)/C(=C\c3cccn3-c3ccccc3Cl)C(=N)N21
IC50 [6]: 30 µM (active) | IC50 [7]: > 100 µM (inactive) | IC50 (Prothrombin): 52.6 µM (active) | IC50 [8]: 4.35 µM (active)

Cc1ccc(NC(=O)C2CCN(S(=O)(=O)c3c(C)n[nH]c3C)CC2)nc1
AC50 (Cytochrome P450 2C19): 39.8 µM (inconclusive) | AC50 (Cytochrome P450 2C9): inconclusive

c1ccc2c(N3CCNCC3)cccc2c1
AC50 [9]: 35.5 µM (inconclusive)

CCN1CCN(c2ccc(S(=O)(=O)N3CCCCC3)cc2NC(=O)c2ccc([N+](=O)[O-])o2)CC1
AC50 (INS1): 3.27 µM (active) | CC50 [10]: 19.1 µM (active) | IC50 (cells [11]): 12.8 µM (active) | CC50 [12]: 16.7 µM (active) | EC50 [2]: 0.741 µM (active) | EC50 [4]: 23.8 µM (active)

O=C(Nc1nc(-c2ccccn2)cs1)c1cc(Cl)ccc1[N+](=O)[O-]
IC50 [1]: 5.37 µM (active) | AC50 (INS1): 1.06 µM (active) | EC50 (cells [13]): > 350 µM (not active) | EC50 (Beta-galactosidase): > 40 µM (inactive) | EC50 (cells [14]): 9.68 µM (active)

Cc1nc2nc(SCC(=O)N3CCOCC3)nn2c(C)c1Cc1c(F)cccc1Cl
AC50 [3]: 0.217 µM (active)

C=CCn1c(NC(=O)c2ccccc2)nc2ccccc21
IC50 (cells [11]): 0.68 µM (active) | CC50 [12]: 17.7 µM (active)

N#C/C(=C\c1ccc(OCc2ccc(C(=O)O)cc2)cc1)C(=O)N1CCOCC1
IC50 [15]: > 80 µM (inactive) | AC50 [16]: 1.19 µM (active)

COC(=O)N1[C@H](C)C=C[C@]1(Cc1ccccc1)C(=O)NCc1ccc(N(C)C)cc1
AC50 (Cytochrome P450 3A4 [5]): 1 µM (inconclusive)

O=C(O)/C=C/c1ccc(O)c(O)c1 [CAFFEIC ACID]
IC50 (Large T antigen): 7.3 µM (active) | AC50 [9]: 2.51 µM (inconclusive) | AC50 (Cytochrome P450 3A4 [5]): 25.1 µM (inconclusive)

COc1ccc(C(=O)c2ccc(O)cc2)c(O)c1O [2,3,4'-TRIHYDROXY-4-METHOXYBENZOPHENONE]
AC50 (Cytochrome P450 3A4 [5]): 25.1 µM (inconclusive)

COC(=O)c1c(C(=O)OC)c(-c2ccccc2)n2c1C[S+]([O-])C2 (configuration not stated)
AC50 [3]: 4.67 µM (active)

CC(Oc1ccc2c(-c3ccccc3)cc(=O)oc2c1)C(=O)NCCCN1CCOCC1 (configuration not stated)
AC50 (Escherichia coli): 62.1 µM (active)

O=c1onc2n1-c1cc(Br)ccc1OC2
AC50 [9]: 5.62 µM (inconclusive) | AC50 (Cytochrome P450 3A4 [17]): 20 µM (inconclusive)

CCc1ccc(OCC(=O)N/N=C/c2cc([N+](=O)[O-])ccc2N2CCOCC2)cc1
CC50 [18]: > 50 µM (active) | IC50 [19]: > 80 µM (inactive)

C=CCNc1ccccc1S(=O)(=O)NCc1ccccc1
AC50 (Escherichia coli): > 150 µM (inactive)

COC(=O)C1=C(C)N(Cc2ccccc2)C(=NCC(C)C)N[C@H]1c1cccc(F)c1
IC50 [1]: > 40 µM (not active) | EC50 (Beta-galactosidase): > 40 µM (inactive)

O=S(=O)(NC1CCCCC1)c1ccc(Cl)s1
AC50 (Escherichia coli): 115 µM (active)

CCOC(=O)c1c(N/C=C(\C#N)c2nc(-c3ccc(OC(C)=O)cc3)cs2)sc2c1CCC2
AC50 (Escherichia coli): 12.3 µM (active)

CCOc1ccc(CCNC(=O)c2cccnc2N2CCCC2)cc1OCC
IC50 [1]: > 40 µM (not active) | EC50 (Beta-galactosidase): > 40 µM (inactive)

O=c1c2cccnc2[nH]c(=S)n1CCCN1CCN(c2ccccc2F)CC1
IC50 (Vero): 24.6 µM (active)

O=c1c(-c2ccc(Cl)cc2)nc2cnc(N3CCOCC3)nc2n1-c1ccccc1
AC50 (Cytochrome P450 2C9): inconclusive | AC50 (Cytochrome P450 1A2): 2 µM (inconclusive)

Cn1cccc1C(=O)C(=O)Nc1cccc(Cl)c1Cl
AC50 (Cytochrome P450 2C9): inconclusive

CCCCCCc1ccc(-c2ccc(C#N)cc2)cc1
AC50 [9]: 6.31 µM (inconclusive)

COc1ccc(C(=O)Nc2ccc(F)cc2F)cc1OC
AC50 (Cytochrome P450 2C19): 39.8 µM (inconclusive) | AC50 (Cytochrome P450 2C9): inconclusive | AC50 (Cytochrome P450 3A4 [17]): 25.1 µM (inconclusive)

N=C1N=C(N)c2cc3ccccc3cc21
AC50 [9]: 28.2 µM (inconclusive)

Reference: ChEMBL document CHEMBL1201862, “PubChem BioAssay data set” (2004)
